Consider 16 molecules from patent US20250115598A1 (Anaxis Pharma Pty Ltd, priority 2021, published 2025).

pKd: −log10 of the molar value. Bounds are passed on as bounds.

The target of one assay is human RIPK1 (Homo sapiens (Human), UniProt Q13546). Nature of the assay: KINOMEscan binding assay, human RIPK1. The following applies: Table 21. The protocol: (§1) Binding affinity of the test compounds for human MLKL (full length), mouse MLKL (full length), human RIPK1 and human RIPK3 was determined using the KINOMEscan™ technology developed by DiscoverX (USA; http://www.discoverx.com). The assay was conducted according to manufacturer instructions.
Sequence of human RIPK1 (Q13546 whole entry): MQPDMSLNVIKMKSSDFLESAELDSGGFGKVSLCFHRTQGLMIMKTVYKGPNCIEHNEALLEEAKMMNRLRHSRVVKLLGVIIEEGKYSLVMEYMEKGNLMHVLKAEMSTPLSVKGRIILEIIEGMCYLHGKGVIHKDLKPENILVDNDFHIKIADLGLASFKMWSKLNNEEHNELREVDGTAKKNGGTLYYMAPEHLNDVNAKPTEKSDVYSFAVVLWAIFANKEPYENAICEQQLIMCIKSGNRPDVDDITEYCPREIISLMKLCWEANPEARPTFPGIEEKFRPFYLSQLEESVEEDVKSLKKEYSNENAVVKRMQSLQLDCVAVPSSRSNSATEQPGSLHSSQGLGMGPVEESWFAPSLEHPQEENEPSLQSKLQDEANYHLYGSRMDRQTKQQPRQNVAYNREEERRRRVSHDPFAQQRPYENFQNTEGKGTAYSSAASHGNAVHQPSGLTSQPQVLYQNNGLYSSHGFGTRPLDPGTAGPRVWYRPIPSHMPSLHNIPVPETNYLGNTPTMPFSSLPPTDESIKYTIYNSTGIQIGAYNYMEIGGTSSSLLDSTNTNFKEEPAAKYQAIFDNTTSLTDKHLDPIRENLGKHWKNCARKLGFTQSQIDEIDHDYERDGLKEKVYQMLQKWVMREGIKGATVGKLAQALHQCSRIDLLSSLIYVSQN
(§2) Kinase assays. For most assays, kinase-tagged T7 phage strains were grown in parallel in 24-well blocks in an E. coli host derived from the BL21 strain. E. coli were grown to log-phase and infected with T7 phage from a frozen stock (multiplicity of infection=0.4) and incubated with shaking at 32° C. until lysis (90-150 minutes). The lysates were centrifuged (6,000×g) and filtered (0.2 μm) to remove cell debris. The remaining kinases were produced in HEK-293 cells and subsequently tagged with DNA for qPCR detection. […] The liganded beads were blocked with excess biotin and washed with blocking buffer (SeaBlock (Pierce), 1% BSA, 0.05% Tween 20, 1 mM DTT) to remove unbound ligand and to reduce non-specific phage binding. […] All reactions were performed in polypropylene 384-well plates in a final volume of 20 μL. […] The kinase concentration in the eluates was measured by qPCR.
(§3) An 11-point 3-fold serial dilution of each test compound was prepared in 100% DMSO at 100× final test concentration and subsequently diluted to 1× in the assay (final DMSO concentration=1%). Most Kos were determined using a compound top concentration=30,000 nM.
(§4) KD for each test compound was calculated with a standard dose-response curve using the Hill equation (equation (1)): […]
(§5) The Hill Slope was set to −1.
(§6) Curves were fitted using a non-linear least square fit with the Levenberg-Marquardt algorithm.

A further assay addresses human RIPK3 (Homo sapiens (Human), UniProt Q9Y572). Nature of the assay: KINOMEscan binding assay, human RIPK3. The following applies: Table 21. On the procedure:
as §1, §2, §3, §4, §5, §6

Another assay has as its target human MLKL (full length) (Homo sapiens (Human), UniProt Q8NB16). Nature of the assay: KINOMEscan binding assay, human MLKL (full length). The conditions noted are these: hMLKL, Table 25; read-out: MLKL (KD). The protocol:
as §1, §2, §3, §4, §5, §6

Sequence of human RIPK3 (Q9Y572 whole entry): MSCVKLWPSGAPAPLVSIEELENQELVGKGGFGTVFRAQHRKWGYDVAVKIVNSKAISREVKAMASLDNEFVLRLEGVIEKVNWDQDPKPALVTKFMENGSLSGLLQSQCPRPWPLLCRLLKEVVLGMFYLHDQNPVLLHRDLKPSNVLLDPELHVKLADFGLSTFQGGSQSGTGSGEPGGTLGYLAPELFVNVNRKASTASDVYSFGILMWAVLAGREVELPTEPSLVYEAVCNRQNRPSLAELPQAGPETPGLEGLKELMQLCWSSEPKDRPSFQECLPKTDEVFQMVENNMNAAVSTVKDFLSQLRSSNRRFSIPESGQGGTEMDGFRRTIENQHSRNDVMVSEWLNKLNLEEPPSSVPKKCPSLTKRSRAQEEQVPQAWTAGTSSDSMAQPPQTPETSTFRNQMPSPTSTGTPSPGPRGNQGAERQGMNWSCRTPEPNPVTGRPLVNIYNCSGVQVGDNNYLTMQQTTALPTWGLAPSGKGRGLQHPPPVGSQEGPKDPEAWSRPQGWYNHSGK
Sequence of human MLKL (full length) (Q8NB16 whole entry): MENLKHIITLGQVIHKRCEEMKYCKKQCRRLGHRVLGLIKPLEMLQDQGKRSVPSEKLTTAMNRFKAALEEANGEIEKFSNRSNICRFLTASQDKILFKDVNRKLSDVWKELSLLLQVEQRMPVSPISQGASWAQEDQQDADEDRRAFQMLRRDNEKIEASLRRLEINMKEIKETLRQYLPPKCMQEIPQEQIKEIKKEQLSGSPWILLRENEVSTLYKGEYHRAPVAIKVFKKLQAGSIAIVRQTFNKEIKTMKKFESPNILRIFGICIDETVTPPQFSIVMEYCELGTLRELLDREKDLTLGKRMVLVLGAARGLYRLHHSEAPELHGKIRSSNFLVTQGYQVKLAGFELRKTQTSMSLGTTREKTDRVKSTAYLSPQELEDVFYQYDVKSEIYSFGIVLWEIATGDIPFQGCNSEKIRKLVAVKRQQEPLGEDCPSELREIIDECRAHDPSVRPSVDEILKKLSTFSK

Turning to `CCS(=O)(=O)Nc1ccc(-c2nn(C)c3c(NC(C)=O)cnc(N)c23)cc1OCc1ccc(F)cc1` [Compound 2, N-(4-amino-3-(4-(ethylsulfonamido)-3-((4-fluorobenzyl)oxy)phenyl)-1-methyl-1H-pyrazolo[4,3-c]pyridin-7-yl)acetamide], the pKd on human RIPK1 and at human RIPK3 was less than 5.00 in each case. In the case of `CCS(=O)(=O)Nc1ccc(-c2coc3c(-c4cnn(CCO)c4)cnc(N)c23)cc1OCc1ccc(F)cc1` [Compound 4, N-(4-(4-amino-7-(1-(2-hydroxyethyl)-1H-pyrazol-4-yl)furo[3,2-c]pyridin-3-yl)-2-((4-fluorobenzyl)oxy)phe-nyl)ethanesulfonamide], the pKd at human RIPK1 and at human RIPK3 was less than 5.00 each time.

On to `Cn1nc(-c2ccc(NS(=O)(=O)C(F)F)c(OCc3ccc(F)cc3)c2)c2c(N)nccc21` [Compound 10, N-(4-{4-amino-1-methyl-1H-pyrazolo[4,3-c]pyridin-3-yl}-2-[(4-fluorophenyl)methoxy]phenyl)-1,1-difluoromethanesulfonamide], for which the pKd at human RIPK1 and at human RIPK3 was less than 5.00 throughout. As to `Nc1ncc(-c2cnn(C3CCOCC3)c2)c2occ(-c3ccc(NS(=O)(=O)CC(F)(F)F)c(OCc4ccc(F)cc4)c3)c12` [Compound 11, N-(4-(4-amino-7-(1-(tetrahydro-2H-pyran-4-yl)-1H-pyrazol-4-yl)furo[3,2-c]pyridin-3-yl)-2-((4-fluorobenzyl)oxy)phenyl)-2,2,2-trifluoroethane-1-sulfonamide], the pKd on human RIPK1 and at human RIPK3 was less than 5.00 in each case. For `C[C@H](Oc1cc(-c2cnn3ccnc(N)c23)ccc1NS(=O)(=O)C(F)F)c1ccc(F)cc1` [Compound 22, (S)—N-(4-(4-aminopyrazolo[1,5-a]pyrazin-3-yl)-2-(1-(4-fluorophenyl)ethoxy)phenyl)-1,1-difluoromethanesulfonamide], the pKd at human RIPK1 and at human RIPK3 was less than 5.00 throughout. Regarding `C[C@H](Oc1cc(-c2nn(C)c3c(-c4ccnc(C(F)(F)F)c4)cnc(N)c23)ccc1NS(=O)(=O)C(F)F)c1ccc(F)cc1` [Compound 23, (S)-N-(4-(4-amino-1-methyl-7-(2-(trifluoromethyl)pyridin-4-yl)-1H-pyrazolo[4,3-c]pyridin-3-yl)-2-(1-(4-fluorophenyl)ethoxy)phenyl)-1,1-difluoromethanesulfonamide], the pKd at human RIPK1 and on human RIPK3 was less than 5.00 in each case. Consider `COc1cc(-c2cnc(N)c3c(-c4ccc(NS(=O)(=O)C(F)F)c(O[C@@H](C)c5ccc(F)cc5)c4)nn(C)c23)ccn1` [Compound 27, (S)-N-(4-(4-amino-7-(2-methoxypyridin-4-yl)-1-methyl-1H-pyrazolo[4,3-c]pyridin-3-yl)-2-(1-(4-fluorophenyl)ethoxy)phenyl)-1,1-difluoromethanesulfonamide], for which the pKd on human RIPK1 and on human RIPK3 was less than 5.00 in each case. On to `C[C@H](Oc1cc(-c2nn(C)c3c(-c4cnn(C5CCCC5)c4)cnc(N)c23)ccc1NS(=O)(=O)C(F)F)c1ccc(F)cc1` [Compound 30, (S)-N-(4-(4-amino-7-(1-cyclopentyl-1H-pyrazol-4-yl)-1-methyl-1H-pyrazolo[4,3-c]pyridin-3-yl)-2-(1-(4-fluorophenyl)ethoxy)phenyl)-1,1-difluoromethanesulfonamide], for which the pKd on human RIPK1 was less than 5.00; at human RIPK3, 5.00 to 7.00. In the same order, the values of `Cc1noc(C)c1-c1cnc(N)c2c(-c3ccc(NS(=O)(=O)C(F)F)c(O[C@@H](C)c4ccc(F)cc4)c3)nn(C)c12` [Compound 33, (S)-N-(4-(4-amino-7-(3,5-dimethylisoxazol-4-yl)-1-methyl-1H-pyrazolo[4,3-c]pyridin-3-yl)-2-(1-(4-fluorophenyl)ethoxy)phenyl)-1,1-difluoromethanesulfonamide] are less than 5.00 and less than 5.00. In the same order, the values of `C[C@H](Oc1cc(-c2nn(C)c3c(Cc4ccccc4)cnc(N)c23)ccc1NS(=O)(=O)C(F)F)c1ccc(F)cc1` [Compound 34, (S)-N-(4-(4-amino-7-benzyl-1-methyl-1H-pyrazolo[4,3-c]pyridin-3-yl)-2-(1-(4-fluorophenyl)ethoxy)phenyl)-1,1-difluoromethanesulfonamide] are less than 5.00 and less than 5.00. In the case of `C[C@H](Oc1cc(-c2nn(C)c3c(C4CCN(C)CC4)cnc(N)c23)ccc1NS(=O)(=O)C(F)F)c1ccc(F)cc1` [Compound 42, (S)—N-(4-(4-amino-1-methyl-7-(1-methylpiperidin-4-yl)-1H-pyrazolo[4,3-c]pyridin-3-yl)-2-(1-(4-fluorophenyl)ethoxy)phenyl)-1,1-difluoromethanesulfonamide], the pKd on human RIPK1 and at human RIPK3 was less than 5.00 in each case.

`C[C@H](Oc1cc(-c2nn(C)c3c(C4=CCOCC4)cnc(N)c23)ccc1NS(=O)(=O)C(F)F)c1ccc(F)cc1` [Compound 43, (S)-N-(4-(4-amino-7-(3,6-dihydro-2H-pyran-4-yl)-1-methyl-1H-pyrazolo[4,3-c]pyridin-3-yl)-2-(1-(4-fluorophenyl)ethoxy)phenyl)-1,1-difluoromethanesulfonamide]: the pKd on human RIPK1 and at human RIPK3 was less than 5.00 throughout. `C[C@H](Oc1cc(-c2nn(C)c3c(-c4cnn(C5CCOCC5)c4)cnc(N)c23)ccc1NS(=O)(=O)CC(F)(F)F)c1ccc(F)cc1` [Compound 44, (S)—N-(4-(4-amino-1-methyl-7-(1-(tetrahydro-2H-pyran-4-yl)-1H-pyrazol-4-yl)-1H-pyrazolo[4,3-c]pyridin-3-yl)-2-(1-(4-fluorophenyl)ethoxy)phenyl)-2,2,2-trifluoroethane-1-sulfonamide]: the pKd at human RIPK1 and at human RIPK3 was less than 5.00 in each case. Consider `CCS(=O)(=O)Nc1ccc(-c2nn(C)c3c(-c4cnn(C5CCOCC5)c4)cnc(N)c23)cc1O[C@@H](C)c1ccc(F)cc1` [Compound 45, (S)-N-(4-(4-amino-1-methyl-7-(1-(tetrahydro-2H-pyran-4-yl)-1H-pyrazol-4-yl)-1H-pyrazolo[4,3-c]pyridin-3-yl)-2-(1-(4-fluorophenyl)ethoxy)phe-nyl)ethanesulfonamide], for which the results for the pKd on human RIPK1 and at human RIPK3 were less than 5.00 and 5.00 to 7.00, respectively. `C[C@H](Oc1cc(-c2nn(C)c3c(-c4ccnc(N(C)C)c4)cnc(N)c23)ccc1NS(=O)(=O)C(F)F)c1ccc(F)cc1` [Compound 49, (S)-N-(4-(4-amino-7-(2-(dimethylamino)pyridin-4-yl)-1-methyl-1H-pyrazolo[4,3-c]pyridin-3-yl)-2-(1-(4-fluorophenyl)ethoxy)phenyl)-1,1-difluoromethanesulfonamide]: the pKd at human RIPK1 and on human RIPK3 was less than 5.00 in each case. For the molecule `C[C@H](Oc1cc(-c2nn(C)c3c(-c4cnn(C5CCN(C(=O)CCC6CCN(c7cccc8c7C(=O)N(C7CCC(=O)N(C)C7=O)C8=O)CC6)CC5)c4)cnc(N)c23)ccc1NS(=O)(=O)C(F)F)c1ccc(F)cc1` (stereo partly drawn) [Compound 1141, N-[4-(4-amino-1-methyl-7-{1-[1-(3-{1-[2-(1-methyl-2,6-dioxopiperidin-3-yl)-1,3-dioxo-2,3-dihydro-1H-isoindol-4-yl]piperidin-4-yl}propanoyl)piperidin-4-yl]-1H-pyrazol-4-yl}-1H-pyrazolo[4,3-c]pyridin-3-yl)-2-[(1S)-1-(4-fluorophenyl)ethoxy]phenyl]-1,1-difluoromethanesulfonamide], the pKd on human MLKL (full length) is greater than 8.00.

A word on the pKd: it is −log10 of the Kd, conventionally taken in molar units.
